PubChem BioAssay (NCI)
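Where inhibition never reached the appropriate level, the endpoint shown equals the highest concentration tested. Otherwise, values were interpolated linearly from a five-concentration, 48-hour dose response in 96-well plates. GI50: concentration for 50% inhibition of growth. TGI marks complete inhibition of growth.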

Key:
Test in all cases: NCI-60 cell line screen, 48 h
COLO 205 colon = test system: COLO 205 colon
NCI/ADR-RES ovarian = test system: NCI/ADR-RES ovarian
EKVX NSCLC = test system: EKVX NSCLC
SK-MEL-28 melanoma = test system: SK-MEL-28 melanoma
RXF 393 renal = test system: RXF 393 renal
OVCAR-4 ovarian = test system: OVCAR-4 ovarian
OVCAR-8 ovarian = test system: OVCAR-8 ovarian
M14 melanoma = test system: M14 melanoma
MDA-MB-435 = test system: MDA-MB-435
CCRF-CEM leukemia = test system: CCRF-CEM leukemia

Structure (SMILES)	GI50 (COLO 205 colon) [µM]	TGI (COLO 205 colon) [µM]	GI50 (NCI/ADR-RES ovarian) [µM]	TGI (NCI/ADR-RES ovarian) [µM]	GI50 (EKVX NSCLC) [µM]	TGI (EKVX NSCLC) [µM]	GI50 (SK-MEL-28 melanoma) [µM]	TGI (SK-MEL-28 melanoma) [µM]	GI50 (RXF 393 renal) [µM]	TGI (RXF 393 renal) [µM]	GI50 (OVCAR-4 ovarian) [µM]	TGI (OVCAR-4 ovarian) [µM]	GI50 (OVCAR-8 ovarian) [µM]	TGI (OVCAR-8 ovarian) [µM]	GI50 (M14 melanoma) [µM]	TGI (M14 melanoma) [µM]	GI50 (MDA-MB-435) [µM]	TGI (MDA-MB-435) [µM]	GI50 (CCRF-CEM leukemia) [µM]	TGI (CCRF-CEM leukemia) [µM]
COC(=O)c1c(-c2cccs2)oc(-c2cccs2)c1C(=O)OC	26.7	> 86.3	31.6	> 94.5	56.8	> 100	56.7	> 100	31	> 100	77.8	> 100	37.6	> 100	20.3	55.2	26	87	27.4	> 100
CCN(CC)CCCC(C)Nc1cc(-c2cccc(OC(F)(F)F)c2)nc2ccc(N3CCCC3)cc12 (stereo not given)	0.213	1.51	0.0453	6.27	0.069	> 100	5.85	58.4	0.0357	89.1	0.483	> 100	0.0626	34.3	0.0361	1.16	0.0223	0.0519	0.0564	> 100
O=C(O)/C(Cc1ccnc2ccccc12)=N\O		> 100		> 100		> 100		> 100		> 100		> 100		> 100		> 100		> 100		> 100
CCCCCCCCCCCCC(O)c1ccco1 (stereo not given)	36.6	> 100	16.4	30.8	20.8	38.8	24.3	55.3	24	44.7	29.7	78.3	25.6	52.9	21	37.9	19.4	35.6	19.4	38.5
O=C(CN(/C=C/C(=O)C(F)(F)F)c1ccc(Cl)cc1)c1ccc(Cl)c(Cl)c1	14.2	39.4	6.03	19.7	14.5	29.3	16.7	45	14.1	36.1	8.71	28.1	10.7	28.8	6.51	19.3	4.03	13.5	3.41	11
